Legend:
[1] = target: T1, human recombinant glutaminyl cyclase (hQC) (Homo sapiens, UniProt Q16769); test: In vitro determination of human QC inhibitory activity (SensoLyte Green Glutaminyl Cyclase Activity Assay Kit); assay type: biochemical
T1 construct: purchased Eurogentec AS-72230
Experimental: Basic statistical analysis was performed.

[2] = Parallel artificial membrane permeation assay for blood-brain barrier (PAMPA-BBB); assay type: in vitro ADME, porcine; conditions: for Papp: pig, PBS:EtOH (70:30), read-out: Blood-brain barrier permeability Pe; for CNS prediction: predictive penetration in the CNS from Pe
Experimental: A parallel artificial membrane permeation assay for blood-brain barrier (PAMPA-BBB) was used to evaluate the brain penetration of compounds of formula I, following the method described by L. Di et al., “High throughput artificial membrane permeability assay for blood-brain barrier”, European Journal of Medicinal Chemistry 2003, vol. 38. pp. 223-232. The in vitro permeability (Pe) of the test compounds through a lipid extract of porcine brain membrane was determined. Assayed compounds were tested using a mixture of PBS:EtOH (70:30). Assay validation was made by comparing the experimental and reported permeability values of a set of fourteen commercial drugs and a lineal correlation between experimental and reported permeability values of the fourteen commercial drugs was obtained (y=1.678 x−1.447; R^2=0.9313). From this equation and taking into account the limits established by Di et al. for BBB permeation, the ranges of permeability were established, as follows. Compounds of high BBB permeation (CNS+): Pe (10^−6 cm s^−1)>5.26; compounds of low BBB permeation (CNS−): Pe (10^−6 cm s^−1)<1.91; and compounds of uncertain BBB permeation (CNS+/−): 5.26>Pe (10^−6 cm s^−1)>1.91. The permeability results are averages of three different experiments in triplicate and a predictive penetration in the CNS is also given (Table 5).

[3] = target: T2, recombinant human sEH (hsEH) (Homo sapiens, UniProt P34913); test: In vitro determination of sEH inhibitory activity (fluorescent PHOME assay)
T2 sequence (P34913 1-555): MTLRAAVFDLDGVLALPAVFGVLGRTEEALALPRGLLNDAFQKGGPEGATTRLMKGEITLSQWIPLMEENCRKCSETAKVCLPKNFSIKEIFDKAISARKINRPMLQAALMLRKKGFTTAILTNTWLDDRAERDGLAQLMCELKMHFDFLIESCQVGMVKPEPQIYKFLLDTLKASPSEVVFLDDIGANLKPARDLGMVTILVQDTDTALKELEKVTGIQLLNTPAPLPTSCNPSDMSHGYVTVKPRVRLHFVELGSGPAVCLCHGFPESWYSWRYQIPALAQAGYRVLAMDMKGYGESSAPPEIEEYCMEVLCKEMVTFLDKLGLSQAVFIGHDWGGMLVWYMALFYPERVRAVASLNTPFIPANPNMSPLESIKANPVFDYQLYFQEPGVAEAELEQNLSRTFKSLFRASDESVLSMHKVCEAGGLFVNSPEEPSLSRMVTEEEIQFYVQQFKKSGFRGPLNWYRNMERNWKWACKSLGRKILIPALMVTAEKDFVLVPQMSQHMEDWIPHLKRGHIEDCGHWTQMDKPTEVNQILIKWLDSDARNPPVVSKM
Experimental: Control compound (TPPU): N-[1-(1-Oxopropyl)-4-piperidinyl]-N′-[4-(trifluoromethoxy)phenyl]urea.
Five μL of DMSO were added to background and positive control wells, and then 5 μL of inhibitor solution were added in the inhibitor wells. Five μL of the solution of hsEH were added to the positive control and inhibitor wells and the mixture was stirred. A 1/21 dilution of the solution of PHOME with assay buffer was prepared according to the final volume required, and then 105 μL of each well were added. The plate was carefully shaken for 10 seconds and was incubated for 5 minutes at room temperature. […] The intensity of fluorescence was used to analyze and calculate the IC50 values. Results were obtained by regression analysis from at least three data points in a linear region of the curve. IC50 values are average of minimum three independent replicates.

T1 sequence (Q16769 29-361): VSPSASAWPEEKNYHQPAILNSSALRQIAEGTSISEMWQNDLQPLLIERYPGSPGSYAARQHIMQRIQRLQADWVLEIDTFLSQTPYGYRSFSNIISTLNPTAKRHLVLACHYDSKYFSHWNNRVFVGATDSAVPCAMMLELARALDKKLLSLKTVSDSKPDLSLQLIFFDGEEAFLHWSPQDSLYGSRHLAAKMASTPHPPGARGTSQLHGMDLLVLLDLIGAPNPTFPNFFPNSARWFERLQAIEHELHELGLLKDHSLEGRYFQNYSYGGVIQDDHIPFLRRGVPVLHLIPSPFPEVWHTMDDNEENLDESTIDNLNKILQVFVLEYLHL

Row | SMILES | IC50 [1] | Papp [2] | CNS prediction [2] | IC50 [3]
1 | Cc1cncn1CCCNC(=O)NCCC1C2CC3CC(C2)CC1C3 (stereo not shown) [Ip, 1-[2-(adamantan-2-yl)ethyl]-3-[3-(5-methyl-1H-imidazol-1-yl)propyl]urea] | 1450 nM | 13 ×10⁻⁶ cm/s | CNS+ (Compounds of high BBB permeation (CNS+): Pe (10^−6 cm s^−1)>5.26) | 95 nM
2 | Cc1cncn1CCCNC(=O)NC12CC3CC(CC1C3)C2 [It, 1-(noradamantan-3-yl)-3-[3-(5-methyl-1H-imidazol-1-yl)propyl]urea] | 460 nM | 5.8 ×10⁻⁶ cm/s | CNS+ (Compounds of high BBB permeation (CNS+): Pe (10^−6 cm s^−1)>5.26) | 185 nM
3 | Cc1cncn1CCCNC(=O)NC12CC3(C)C4(C)CC1CC4(C)C3(C)C2 [Iv, 1-[3-(5-methyl-1H-imidazol-1-yl)propyl]-3-(3,4,8,9-tetramethyltetracyclo[4.4.0.0^3,9.0^4,8]decan-1-yl)urea] | 540 nM | 7.5 ×10⁻⁶ cm/s | CNS+ (Compounds of high BBB permeation (CNS+): Pe (10^−6 cm s^−1)>5.26) | 103 nM
4 | Cc1cncn1CCCNC(=O)N(C)C1C2CC3CC(C2)CC1C3 (stereo not shown) [Iy, 1-(adamantan-2-yl)-1-methyl-3-[3-(5-methyl-1H-imidazol-1-yl)propyl]urea] | 205 nM | 9.8 ×10⁻⁶ cm/s | CNS+ (Compounds of high BBB permeation (CNS+): Pe (10^−6 cm s^−1)>5.26) | 23 nM

Source: patent US20260092039A1, “DUAL INHIBITORS FOR THE TREATMENT OF ALZHEIMER'S DISEASE” (UNIVERSITAT DE BARCELONA, priority 2023, published 2026)
